Measured values: US7632678B2, “Cancer stem cells and uses thereof” (The Hospital for Sick Children, priority 2005, dated 2009)

System: Tumor-initiating cells (NB12)
Assay: IC50 determination, alamarBlue cell survival/growth
Assay type: cell-based, human
Conditions: 10 serial dilutions 5 μM to 9 nM
Experimental: Tumor-initiating cells and normal cells were treated with 10 serial dilutions of compounds (5 μM to 9 nM). […] (FS90=normal cells; NB12=tumor-initiating cells).
Tumor-initiating cells (NB12) and normal cells (FS90) were treated with 10 serial dilutions of compounds ranging from 5 μM to 9 nM. […] IC50 values for NB12 are given above each plot.
IC50 values for NB12 and FS90 are given beside each plot.
For each cell type, cells were passaged 5 days prior to screening.

With Dequalinium analog, C-14 linker the IC50 was 1110 nM.
